Experimental data reported in patent US20090221523A1 (priority 2005, published 2009).
≈ marks a conversion by molar mass, not a printed value. Where “and” joins values, the source holds several entries; their conditions need not be identical. Equal entries are not always repeated. Where two headings read alike, the source gives them in different places. Marks after values point to notes of the source that are not given here.

What was measured:
HSV-1 strain F = assay: microbe, parasite or virus in culture; assay type: cell-based, herpes simplex virus; conditions: Human alphaherpesvirus 1, HFF
HSV-1 TK− strain DM2.1 = assay: microbe, parasite or virus in culture; assay type: cell-based, herpes simplex virus; conditions: Human alphaherpesvirus 1, HFF
[1] = test system: CV strain delta crmA (TK+); assay: microbe, parasite or virus in culture; assay type: cell-based; conditions: Cowpox virus, Vero, read-out: CV delta crmA EC50 (TK+)
[2] = test system: CV strain TK:GFP lacZ (TK−); assay: microbe, parasite or virus in culture; assay type: cell-based; conditions: Cowpox virus, Vero, read-out: CV TK:GFP lacZ EC50 (TK−)
in vitro = conditions: human
ΔcrmA (TK+) CV strain = assay: microbe, parasite or virus in culture; assay type: cell-based; conditions: Cowpox virus, HFF, read-out: EC50 CV (Δcrm lacZ) TK+
[3] = test system: TK:GFP lacZ (TK−) CV strain; assay: microbe, parasite or virus in culture; assay type: cell-based; conditions: Cowpox virus, HFF, read-out: EC50 CV (TK:gpf lacZ)
[4] = test system: vaccinia virus (Copenhagen Strain); assay: microbe, parasite or virus in culture; assay type: cell-based; conditions: Orthopoxvirus vaccinia, HFF, read-out: Vaccinia (Copenhagen) EC50
[5] = test system: cowpox virus (Brighton strain); assay: microbe, parasite or virus in culture; assay type: cell-based; conditions: HFF, read-out: Cowpox (Brighton) EC50
[6] = test system: vaccinia virus (Copenhagen Strain); assay: microbe, parasite or virus in culture; assay type: cell-based
[7] = test system: cowpox virus (Brighton strain); assay: microbe, parasite or virus in culture; assay type: cell-based; conditions: HFF, read-out: CV (Brighton) EC50
HFF cells [8] = assay: cells; assay type: cell-based; conditions: Homo sapiens, 72 h, read-out: IC50, 50% inhibition of cell proliferation
vaccinia IHD strain = test system: vaccinia IHD strain; set-up: species or system BALB/c mice; conditions: mouse, in vivo
cowpox Brighton Strain [9] = test system: cowpox Brighton Strain; set-up: species or system BALB/c mice; conditions: mouse, in vivo; for MDD, mean day of death / Mortality % / Mortality No. dead/total no.: ip
cowpox Brighton Strain [10] = test system: cowpox Brighton Strain; set-up: species or system BALB/c mice; conditions: mouse, in vivo
vaccinia WR strain = test system: vaccinia WR strain; set-up: species or system BALB/c mice; conditions: mouse, in vivo
vaccinia (WR strain) = test system: vaccinia (WR strain); set-up: species or system mice; Mean Lung Virus Titer: unit not given here; conditions: mouse, in vivo
vaccinia (HID strain) = test system: vaccinia (HID strain); set-up: species or system mice; Mean Lung Virus Titer: unit not given here; conditions: mouse, in vivo
WR strain of VV = assay: microbe, parasite or virus in culture; assay type: cell-based; conditions: Orthopoxvirus vaccinia, HFF, 24 h, read-out: EC50 for inhibiting VV DNA synthesis
HSV-1 strain E377 = test system: HSV-1 strain E377; set-up: species or system BALB/c mice; conditions: mouse, in vivo
VV strain WR = test system: VV strain WR; set-up: species or system BALB/c mice; conditions: mouse, in vivo, ip
Epstein-Barr virus = assay: microbe, parasite or virus in culture; assay type: cell-based; conditions: human gammaherpesvirus 4, read-out: EC50, inhibition of Epstein-Barr virus replication
human cytomegalovirus = assay type: cell-based
human herpesvirus 6 = assay type: cell-based; conditions: betaherpesvirus without TK activity
HFF cells [11] = conditions: human
[12] = mouse, in vivo
Human herpesvirus 8 = conditions: Zhu, et al. 2005; cited from earlier work
[13] = test system: Cc1cn([C@H]2C[C@H](O)[C@@H](CO)O2)c(=O)[nH]c1=O; assay: purified protein, by the assay type
[14] = read-out: HSV-1 DM2.1 EC50 (TK−)
[15] = read-out: EC50 HSV-1 (DM2.1) TK−

## O=c1[nH]c(=O)n([C@@H]2O[C@H](CO)[C@@H](O)[C@@H]2F)cc1I [FIAU, fialuridine]
HSV-1 strain F; read-out: HSV-1 F EC50 (TK+)
  EC50: 0.05 ± 0.03 µg/mL (≈ 0.134 µM)
HSV-1 TK− strain DM2.1; [14]
  EC50: 3.9 ± 3.3 µg/mL (≈ 10.5 µM)
[1]
  EC50: 14 ± 7 µg/mL (≈ 37.6 µM)
[2]
  EC50: 19 ± 6.7 µg/mL (≈ 51.1 µM)
In vitro
  CC50: > 100 µg/mL

## O=c1[nH]c(=O)n([C@H]2C[C@H](O)[C@@H](CO)O2)cc1F [FdU, 5-fluorodeoxyuridine]
HSV-1 strain F; read-out: HSV-1 F EC50 (TK+)
  EC50: 2.5 ± 1.7 µg/mL (≈ 10.2 µM)
HSV-1 TK− strain DM2.1; [14]
  EC50: 4.5 ± 3.3 µg/mL (≈ 18.3 µM)
[1]
  EC50: 0.37 µg/mL (≈ 1.5 µM)
[2]
  EC50: 0.37 µg/mL (≈ 1.5 µM)
In vitro
  CC50: 60 ± 0.7 µg/mL (≈ 244 µM)

## O=c1[nH]c(=O)n([C@H]2C[C@H](O)[C@@H](CO)O2)cc1I [IDU, idoxuridine]
HSV-1 strain F; read-out: EC50 HSV-1 (F) TK+
  EC50: 2.1 ± 0.1 µg/mL (≈ 5.93 µM)
HSV-1 strain F; read-out: HSV-1 F EC50 (TK+)
  EC50: 2.1 ± 0.1 µg/mL (≈ 5.93 µM)
HSV-1 TK− strain DM2.1; [15]
  EC50: 54 ± 8.1 µg/mL (≈ 152 µM)
HSV-1 TK− strain DM2.1; [14]
  EC50: 54 ± 8.1 µg/mL (≈ 152 µM)
[1]
  EC50: 2.2 ± 0.87 µg/mL (≈ 6.21 µM)
[2]
  EC50: 16 ± 9.3 µg/mL (≈ 45.2 µM)
ΔcrmA (TK+) CV strain
  EC50: 0.4 ± 0.18 µg/mL (≈ 1.13 µM)
[3]
  EC50: 22 ± 9.3 µg/mL (≈ 62.1 µM)
In vitro
  CC50: > 100 µg/mL

## O=c1[nH]c(=O)n([C@H]2C[C@H](O)[C@@]3(CO)CC23)cc1Br (stereo partly drawn) [N-MCBrU]
[4]
  EC50: 0.6 µg/mL (≈ 1.89 µM)
[5]
  EC50: 11.5 µg/mL (≈ 36.3 µM)
In vitro
  CC50: > 100 µg/mL

## Cc1cn([C@H]2C[C@H](O)[C@]3(CO)C[C@H]23)c(=O)[nH]c1=O [N-MCT, North-methanocarbathymidine]
[4]
  EC50: 0.73 µg/mL (≈ 2.89 µM)
[5]
  EC50: 0.31 µg/mL (≈ 1.23 µM)
[6]
  VV (Copenhagen) EC50: 0.55 ± 0.13 µg/mL
[6]; Orthopoxvirus vaccinia, HFF, read-out: VV (Copenhagen) EC50
  EC50: 0.6 µg/mL (≈ 2.38 µM)
[7]
  EC50: 1.5 ± 1.2 µg/mL (≈ 5.95 µM)
HFF cells [8]
  IC50: 29 ± 5.4 µg/mL (≈ 115 µM)
Vaccinia IHD strain
  Mean Day of Death: 8.7 days
  Mortality Number: 0/15 and 3/15
Vaccinia IHD strain; 5.6 mg/kg
  Animals that survived: 80%
Vaccinia IHD strain; ip, 5.6 mg/kg
  MDD, mean day of death: 8.7 days
  Mortality %: 20%
  Mortality No. dead/total no.: 3/15
Vaccinia IHD strain; ip, 16.7 mg/kg
  Mortality %: 0%
  Mortality No. dead/total no.: 0/15
Vaccinia IHD strain; ip, 50 mg/kg
  Mortality %: 0%
  Mortality No. dead/total no.: 0/15
Cowpox Brighton Strain [9]
  Mean Day of Death: 14.0 days and 7.5 days and 13.3 days
  Mortality Number: 6/15 and 2/15 and 3/15
Cowpox Brighton Strain [9]; 5.6 mg/kg
  MDD, mean day of death: 14.0 days
  Mortality %: 40%
  Mortality No. dead/total no.: 6/15
Cowpox Brighton Strain [9]; 16.7 mg/kg
  MDD, mean day of death: 13.3 days
  Mortality %: 20%
  Mortality No. dead/total no.: 3/15
Cowpox Brighton Strain [9]; 50 mg/kg
  MDD, mean day of death: 7.5 days
  Mortality %: 13%
  Mortality No. dead/total no.: 2/15
Cowpox Brighton Strain [10]
  Number of Survivors: 9/10 and 2/10 and 1/10
Vaccinia WR strain
  Number of Survivors: 0/10
Vaccinia (WR strain)
  MDD (mean day of death ± SD of mice that died prior to day 21): 8.3 ± 0.6 days and 11.2 ± 4.7 days
  Mean Lung Virus Titer: 7.9 ± 0.2 and 8.2 ± 0.1 and 8.3 ± 0.2
  Survivors/Total: 7/10*** and 4/10* and 1/10
Vaccinia (HID strain)
  MDD, mean day of death: >21*** day
  Mean Lung Virus Titer: 7.1 ± 0.3 and 8.1 ± 0.1 and 8.3 ± 0.1
  Survivors/Total: 10/10***
HSV-1 strain F; read-out: EC50 HSV-1 (F) TK+
  EC50: 0.07 ± 0.02 µg/mL (≈ 0.277 µM)
HSV-1 TK− strain DM2.1; [15]
  EC50: 6.3 ± 3.9 µg/mL (≈ 25 µM)
ΔcrmA (TK+) CV strain
  EC50: 2 ± 2 µg/mL (≈ 7.93 µM)
[3]
  EC50: 28 ± 2.3 µg/mL (≈ 111 µM)
WR strain of VV
  EC50: 1 µg/mL (≈ 3.96 µM)
HSV-1 strain E377
  MDD, mean day of death: 20 days
  Mortality %: 0% and 7%
  Mortality No. dead/total no.: 0/15 and 1/15
VV strain WR; 5.6 mg/kg
  MDD, mean day of death: 8.2 days
  Mortality %: 80%
  Mortality No. dead/total no.: 12/15
VV strain WR; 16.7 mg/kg
  MDD, mean day of death: 7.5 days
  Mortality %: 13%
  Mortality No. dead/total no.: 2/15
VV strain WR; 50 mg/kg
  Mortality %: 0%
  Mortality No. dead/total no.: 0/15
Epstein-Barr virus
  EC50: 0.45 µg/mL (≈ 1.78 µM)
Human cytomegalovirus
  Activity against human cytomegalovirus: inactive
Human herpesvirus 6
  Activity against human herpesvirus 6: inactive
HFF cells [11]
  CC50: >100 ± 0 µg/mL
[12]
  Tolerability in mice: well tolerated
Human herpesvirus 8
  Sensitivity of human herpesvirus 8 to the drug: sensitive
In vitro
  CC50: > 100 µg/mL

## O=c1[nH]c(=O)n([C@H]2C[C@H](O)[C@@H](CO)O2)cc1C(F)(F)F [TFT, trifluridine]
HSV-1 strain F; read-out: HSV-1 F EC50 (TK+)
  EC50: 1 ± 0.2 µg/mL (≈ 3.38 µM)
HSV-1 TK− strain DM2.1; [14]
  EC50: 1.1 ± 0.3 µg/mL (≈ 3.71 µM)
[1]
  EC50: 0.42 ± 0.33 µg/mL (≈ 1.42 µM)
[2]
  EC50: 0.72 ± 0.28 µg/mL (≈ 2.43 µM)
In vitro
  CC50: > 100 µg/mL

## purified VV TK (Vaccinia virus Copenhagen)
[13]
  Km: 49 ± 7.6 µM
  Vmax: 289 µM/min/mg
